{"source": "ChEMBL document CHEMBL5365457", "about": "“Selective HDAC3 Inhibitors with Potent In Vivo Antitumor Efficacy against Triple-Negative Breast Cancer” (J Med Chem, 2023)", "key": {"[1]": {"test": "AUC (0 to t) in Wistar rat at 15 mg/kg, ip measured upto 24 hrs by HPLC analysis", "assay_type": "ADME, organism-based", "parameters": "dose 15 mg/kg, time < 24 hrs, route ip", "conditions": "in vivo"}, "4T1 [2]": {"system": "4T1", "test": "Antitumor activity against mouse 4T1 cells implanted in BALB/c mouse assessed as upregulation of cytochrome c level in tumor at 5 to 15 mg/kg, ip by Western blot analysis", "assay_type": "functional, organism-based", "conditions": "dose 5-15 mg/kg"}, "[3]": {"test": "Toxicity in BALB/c mouse implanted with mouse 4T1 cells assessed as spleen fibrosis at 5 to 15 mg/kg, ip measured after 21 days", "assay_type": "organism-based", "conditions": "in vivo, 504 h, dose 5-15 mg/kg, time 21 day"}, "4T1 [4]": {"system": "4T1", "test": "Antitumor activity against mouse 4T1 cells implanted in BALB/c mouse assessed as reduction in Ki-67 expression in tumor tissue at 5 to 15 mg/kg, ip measured for 21 days by fluorescence based microscopic analysis", "assay_type": "functional, organism-based", "conditions": "dose 5-15 mg/kg, time 21.0 day"}, "[5]": {"test": "Selectivity ratio of IC50 for cytotoxicity against human MCF-10A cells assessed as inhibition of cell growth to IC50 for cytotoxicity against […] cells assessed as inhibition of cell growth", "assay_type": "toxicity, cell-based", "conditions": "MCF-10A cells versus 4T1 cells, read-out: Ratio IC50"}, "[6]": {"test": "Apparent oral clearance in Wistar rat at 15 mg/kg, ip measured upto 24 hrs by HPLC analysis", "assay_type": "ADME, organism-based", "conditions": "in vivo"}, "MDA-MB-231": {"system": "MDA-MB-231", "test": "Cytotoxicity against wild type human MDA-MB-231 cells assessed as reduction in cell viability incubated for 72 hrs by MTT assay", "assay_type": "functional, cell-based", "conditions": "MDA-MB-231, 72 h"}, "4T1 [7]": {"system": "4T1", "test": "Antitumor activity against mouse 4T1 cells implanted in BALB/c mouse assessed as reduction in Ki-67 protein level in tumor at 5 to 15 mg/kg, ip by Western blot analysis", "assay_type": "functional, organism-based", "conditions": "dose 5-15 mg/kg"}, "[8]": {"test": "Selectivity ratio of IC50 for cytotoxicity against human HCEC cells assessed as inhibition of cell growth to IC50 for cytotoxicity against human MDA-MB-453 cells assessed as inhibition of cell growth", "assay_type": "toxicity, cell-based", "conditions": "HCEC cells versus MDA-MB-453 cells, read-out: Ratio IC50"}, "[9]": {"test": "Toxicity against BALB/c mouse implanted with mouse 4T1 cells assessed as body weight gain at 5 to 15 mg/kg,ip administered 5 times a week for 21 days", "assay_type": "organism-based", "conditions": "in vivo, 504 h, dose 5-15 mg/kg, time 21 day"}, "Histone deacetylase 2 [10]": {"target": "T1, Histone deacetylase 2 (Homo sapiens, UniProt Q92769)", "T1 sequence (Q92769 whole entry)": "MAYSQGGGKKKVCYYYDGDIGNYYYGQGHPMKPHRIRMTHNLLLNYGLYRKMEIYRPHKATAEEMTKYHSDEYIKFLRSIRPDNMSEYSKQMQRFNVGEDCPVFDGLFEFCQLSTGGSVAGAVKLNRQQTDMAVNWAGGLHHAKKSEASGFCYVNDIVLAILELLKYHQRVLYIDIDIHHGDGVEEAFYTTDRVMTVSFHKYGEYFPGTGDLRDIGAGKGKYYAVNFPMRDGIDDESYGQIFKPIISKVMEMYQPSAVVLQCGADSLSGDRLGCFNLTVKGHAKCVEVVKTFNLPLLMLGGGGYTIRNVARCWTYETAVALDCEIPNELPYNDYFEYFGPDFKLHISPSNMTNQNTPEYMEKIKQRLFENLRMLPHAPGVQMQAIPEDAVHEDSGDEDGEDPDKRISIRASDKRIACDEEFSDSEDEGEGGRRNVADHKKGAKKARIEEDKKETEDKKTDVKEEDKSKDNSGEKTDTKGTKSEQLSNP", "test": "Inhibition of human recombinant HDAC2 incubated for 30 mins by fluorescence based microplate analysis"}, "[11]": {"test": "Selectivity ratio of IC50 for cytotoxicity against human MCF-10A cells assessed as inhibition of cell growth to IC50 for cytotoxicity against human MDA-MB-231 cells assessed as inhibition of cell growth", "assay_type": "toxicity, cell-based", "conditions": "MCF-10A cells versus MDA-MB-231 cells, read-out: Ratio IC50"}, "4T1 [12]": {"system": "4T1", "test": "Antitumor activity against mouse 4T1 cells implanted in BALB/c mouse assessed as reduction in tumor volume at 15 mg/kg, ip administered 5 times a week for 21 days (reference value: 52.05+/-12.35 mm3)", "assay_type": "functional", "conditions": "time 21 day"}, "4T1 [13]": {"system": "4T1", "test": "In-vivo inhibition of HDAC3 in BALB/c mouse implanted with mouse 4T1 cells assessed as increase in acetylation of tubulin level at 5 to 15 mg/kg, ip by Western blot analysis", "assay_type": "functional, organism-based", "conditions": "dose 5-15 mg/kg"}, "[14]": {"test": "Selectivity ratio of IC50 for cytotoxicity against human MCF-10A cells assessed as inhibition of cell growth to IC50 for cytotoxicity against human MCF7 cells assessed as inhibition of cell growth", "assay_type": "toxicity, cell-based", "conditions": "MCF-10A cells versus MCF7 cells, read-out: Ratio IC50"}, "Histone deacetylase 5": {"target": "Histone deacetylase 5 (Homo sapiens, UniProt Q9UQL6)", "sequence (Q9UQL6 whole entry)": "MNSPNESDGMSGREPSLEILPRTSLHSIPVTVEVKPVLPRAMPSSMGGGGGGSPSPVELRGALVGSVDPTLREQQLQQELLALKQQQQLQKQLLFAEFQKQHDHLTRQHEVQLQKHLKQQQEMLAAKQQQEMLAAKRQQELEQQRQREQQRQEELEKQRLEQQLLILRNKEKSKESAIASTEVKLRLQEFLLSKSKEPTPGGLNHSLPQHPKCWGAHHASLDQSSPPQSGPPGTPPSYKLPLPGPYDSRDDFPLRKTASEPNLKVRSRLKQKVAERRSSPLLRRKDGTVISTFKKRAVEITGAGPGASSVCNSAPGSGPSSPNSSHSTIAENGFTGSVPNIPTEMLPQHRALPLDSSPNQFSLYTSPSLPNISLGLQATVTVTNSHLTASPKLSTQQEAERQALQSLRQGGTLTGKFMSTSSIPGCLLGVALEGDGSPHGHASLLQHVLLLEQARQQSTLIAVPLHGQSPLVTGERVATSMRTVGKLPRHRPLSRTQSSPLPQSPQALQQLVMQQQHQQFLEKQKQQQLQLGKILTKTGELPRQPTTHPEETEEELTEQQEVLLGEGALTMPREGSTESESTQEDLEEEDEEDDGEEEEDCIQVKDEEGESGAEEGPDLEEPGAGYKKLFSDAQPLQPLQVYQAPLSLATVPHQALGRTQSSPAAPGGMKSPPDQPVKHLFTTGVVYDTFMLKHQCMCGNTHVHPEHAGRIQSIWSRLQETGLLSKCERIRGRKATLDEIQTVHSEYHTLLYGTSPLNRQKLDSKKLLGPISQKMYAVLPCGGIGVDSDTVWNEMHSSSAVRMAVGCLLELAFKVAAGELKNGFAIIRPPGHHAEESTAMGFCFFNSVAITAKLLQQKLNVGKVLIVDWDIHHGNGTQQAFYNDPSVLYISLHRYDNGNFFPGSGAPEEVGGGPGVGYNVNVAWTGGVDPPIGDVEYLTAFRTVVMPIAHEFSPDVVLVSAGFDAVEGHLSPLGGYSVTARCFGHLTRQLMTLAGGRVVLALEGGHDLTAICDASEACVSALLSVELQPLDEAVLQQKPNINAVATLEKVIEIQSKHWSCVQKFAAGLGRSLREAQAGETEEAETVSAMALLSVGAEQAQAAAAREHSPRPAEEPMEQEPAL", "test": "Inhibition of recombinant HDAC5 (unknown origin) incubated for 30 mins by fluorescence based microplate analysis"}, "[15]": {"test": "Cytotoxicity against human MCF-10A cells assessed as inhibition of cell growth incubated for 72 hrs by MTT assay", "assay_type": "toxicity, cell-based"}, "4T1 [16]": {"system": "4T1", "test": "Induction of apoptosis in mouse 4T1 cells assessed as nuclear fragmentation incubated for 72 hrs by acridine orange staining based analysis", "assay_type": "functional, cell-based"}, "[17]": {"test": "Selectivity ratio of IC50 for cytotoxicity against human HCEC cells assessed as inhibition of cell growth to IC50 for cytotoxicity against mouse 4T1 cells assessed as inhibition of cell growth", "assay_type": "toxicity, cell-based", "conditions": "HCEC cells versus 4T1 cells, read-out: Ratio IC50"}, "[18]": {"test": "Toxicity in BALB/c mouse implanted with mouse 4T1 cells assessed as heart damage at 5 to 15 mg/kg, ip measured after 21 days by H and E staining based assay", "assay_type": "organism-based", "conditions": "in vivo, 504 h, dose 5-15 mg/kg, time 21 day"}, "[19]": {"test": "Toxicity in BALB/c mouse implanted with mouse 4T1 cells assessed as liver damage at 5 to 15 mg/kg, ip measured after 21 days by H and E staining based assay", "assay_type": "organism-based", "conditions": "in vivo, 504 h, dose 5-15 mg/kg, time 21 day"}, "Histone deacetylase 8": {"target": "T2, Histone deacetylase 8 (Homo sapiens, UniProt Q9BY41)", "T2 sequence (Q9BY41 whole entry)": "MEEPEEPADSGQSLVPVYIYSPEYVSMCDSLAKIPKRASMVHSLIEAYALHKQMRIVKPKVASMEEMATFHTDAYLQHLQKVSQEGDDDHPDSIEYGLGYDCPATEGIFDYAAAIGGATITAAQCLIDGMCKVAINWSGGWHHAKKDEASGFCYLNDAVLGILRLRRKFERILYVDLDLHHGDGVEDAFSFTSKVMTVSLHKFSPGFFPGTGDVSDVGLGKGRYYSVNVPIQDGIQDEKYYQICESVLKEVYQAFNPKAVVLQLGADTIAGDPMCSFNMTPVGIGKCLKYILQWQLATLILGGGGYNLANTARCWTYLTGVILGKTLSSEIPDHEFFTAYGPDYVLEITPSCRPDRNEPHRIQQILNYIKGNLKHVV", "test": "Inhibition of human recombinant HDAC8 incubated for 15 mins by fluorescence based microplate analysis"}, "Histone deacetylase 4": {"target": "Histone deacetylase 4 (Homo sapiens, UniProt P56524)", "sequence (P56524 whole entry)": "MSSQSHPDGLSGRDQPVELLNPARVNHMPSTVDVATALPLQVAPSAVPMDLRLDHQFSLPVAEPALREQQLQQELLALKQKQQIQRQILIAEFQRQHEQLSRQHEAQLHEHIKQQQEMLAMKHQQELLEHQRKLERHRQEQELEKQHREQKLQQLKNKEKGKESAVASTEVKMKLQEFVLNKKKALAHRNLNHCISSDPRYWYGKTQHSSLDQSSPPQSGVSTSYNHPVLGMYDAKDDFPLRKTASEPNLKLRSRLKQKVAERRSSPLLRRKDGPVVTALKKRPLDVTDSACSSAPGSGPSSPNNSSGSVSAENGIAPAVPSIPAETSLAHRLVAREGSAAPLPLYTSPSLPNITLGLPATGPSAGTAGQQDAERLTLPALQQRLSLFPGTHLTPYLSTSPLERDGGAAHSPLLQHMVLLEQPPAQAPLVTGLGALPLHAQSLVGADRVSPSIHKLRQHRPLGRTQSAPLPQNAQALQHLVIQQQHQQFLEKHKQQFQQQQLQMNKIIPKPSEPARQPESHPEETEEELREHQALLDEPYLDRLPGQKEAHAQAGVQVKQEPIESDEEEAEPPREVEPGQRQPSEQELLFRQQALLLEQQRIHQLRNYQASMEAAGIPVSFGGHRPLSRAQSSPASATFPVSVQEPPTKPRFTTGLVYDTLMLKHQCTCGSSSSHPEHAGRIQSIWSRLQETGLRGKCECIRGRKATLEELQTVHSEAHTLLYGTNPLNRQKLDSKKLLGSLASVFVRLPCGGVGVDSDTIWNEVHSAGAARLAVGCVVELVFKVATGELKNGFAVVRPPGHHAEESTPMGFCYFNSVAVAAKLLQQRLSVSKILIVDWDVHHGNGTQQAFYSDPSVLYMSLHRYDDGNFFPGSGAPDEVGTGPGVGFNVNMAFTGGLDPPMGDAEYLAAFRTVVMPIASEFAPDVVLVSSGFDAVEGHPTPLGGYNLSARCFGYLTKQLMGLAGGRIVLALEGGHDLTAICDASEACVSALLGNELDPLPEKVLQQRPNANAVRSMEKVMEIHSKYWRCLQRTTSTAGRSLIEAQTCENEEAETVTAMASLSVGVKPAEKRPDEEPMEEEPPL", "test": "Inhibition of HDAC4 (unknown origin) incubated for 30 mins by fluorescence based microplate analysis"}, "4T1 [20]": {"system": "4T1", "test": "Antitumor activity against mouse 4T1 cells implanted in BALB/c mouse assessed as reduction in tumor weight at 5 mg/kg, ip administered 5 times a week for 21 days", "assay_type": "functional", "conditions": "time 21 day"}, "[21]": {"test": "Toxicity in BALB/c mouse implanted with mouse 4T1 cells assessed as liver fibrosis at 5 to 15 mg/kg, ip measured after 21 days", "assay_type": "organism-based", "conditions": "in vivo, 504 h, dose 5-15 mg/kg, time 21 day"}, "4T1 [22]": {"system": "4T1", "test": "Antitumor activity against mouse 4T1 cells implanted in BALB/c mouse assessed as reduction in lung metastasis at 5 to 15 mg/kg, ip measured for 7 days by fluorescence based assay", "assay_type": "functional, organism-based", "conditions": "dose 5-15 mg/kg, time 7.0 day"}, "4T1 [23]": {"system": "4T1", "test": "Antitumor activity against mouse 4T1 cells implanted in BALB/c mouse assessed as tumor growth inhibition at 15 mg/kg, ip measured on day 14", "assay_type": "functional", "conditions": "4T1, 336 h, time 14 day, read-out: TGI"}, "Histone deacetylase 2 [24]": {"target": "T1, Histone deacetylase 2", "test": "Inhibition of human recombinant HDAC2 at 1 uM incubated for 30 mins by fluorescence based microplate assay relative to control"}, "4T1 [25]": {"system": "4T1", "test": "Antitumor activity against mouse 4T1 cells implanted in BALB/c mouse assessed as tumor growth inhibition at 5 mg/kg, ip measured on day 21", "assay_type": "functional", "conditions": "4T1, 504 h, time 21 day, read-out: TGI"}}, "note": "Active and inactive are the calls of the source. No cut-off for these calls is given here.", "data": [{"compound": "CCCNNC(=O)c1cnc(NCc2ccc(OC)cc2)cn1", "values": [{"measurement": "AUC(0-t) at 24 h", "setting": "[1]", "result": 19600, "unit": "ng·h/mL"}, {"measurement": "Activity", "setting": "4T1 [2]", "result": "Active"}, {"measurement": "Activity", "setting": "[3]", "result": "Non-Toxic"}, {"measurement": "Activity", "setting": "4T1 [4]", "result": "Active"}, {"measurement": "selectivity ratio", "setting": "[5]", "result": 385}, {"measurement": "CL/F", "setting": "[6]", "result": "1.3 (mg/kg)/(ug/ml).hr"}, {"measurement": "IC50", "setting": "MDA-MB-231", "result": 0.743, "unit": "µM"}, {"measurement": "Activity", "setting": "4T1 [7]", "result": "Active"}, {"measurement": "selectivity ratio", "setting": "[8]", "result": 286}, {"measurement": "Activity", "setting": "[9]", "result": "Non-Toxic"}, {"measurement": "IC50", "setting": "Histone deacetylase 2 [10]", "result": 1.7, "unit": "µM"}, {"measurement": "selectivity ratio", "setting": "[11]", "result": 385}, {"measurement": "Activity", "setting": "4T1 [12]", "result": 101.23, "unit": "mm3"}, {"measurement": "inhibition", "setting": "4T1 [13]", "result": "Active"}, {"measurement": "selectivity ratio", "setting": "[14]", "result": 385}, {"measurement": "IC50", "setting": "Histone deacetylase 5", "result": "> 20", "unit": "µM"}, {"measurement": "IC50 at 72 h", "setting": "[15]", "result": 212, "unit": "µM"}, {"measurement": "Activity", "setting": "4T1 [16]", "result": "Active"}, {"measurement": "selectivity ratio", "setting": "[17]", "result": 286}, {"measurement": "Activity", "setting": "[18]", "result": "Non-Toxic"}, {"measurement": "Activity", "setting": "[19]", "result": "Non-Toxic"}, {"measurement": "IC50", "setting": "Histone deacetylase 8", "result": 10.7, "unit": "µM"}, {"measurement": "IC50", "setting": "Histone deacetylase 4", "result": "> 20", "unit": "µM"}, {"measurement": "Activity", "setting": "4T1 [20]", "result": 0.65, "unit": "g"}, {"measurement": "Activity", "setting": "[21]", "result": "Non-Toxic"}, {"measurement": "Activity", "setting": "4T1 [22]", "result": "Active"}, {"measurement": "inhibition in vivo at 15 mg/kg", "setting": "4T1 [23]", "result": 97.3, "unit": "%"}, {"measurement": "inhibition", "setting": "Histone deacetylase 2 [24]", "result": "< 17", "unit": "%"}, {"measurement": "inhibition in vivo at 5 mg/kg", "setting": "4T1 [25]", "result": 92.9, "unit": "%"}]}]}
